This assay concerns the target Cannabinoid receptor 1 (Rattus norvegicus, UniProt P20272).

SMILES strings stand for the structures. Where “and” joins values, the source holds several entries; their conditions need not be identical. Equal entries are not always repeated.

Sequence of Cannabinoid receptor 1 (P20272 whole entry): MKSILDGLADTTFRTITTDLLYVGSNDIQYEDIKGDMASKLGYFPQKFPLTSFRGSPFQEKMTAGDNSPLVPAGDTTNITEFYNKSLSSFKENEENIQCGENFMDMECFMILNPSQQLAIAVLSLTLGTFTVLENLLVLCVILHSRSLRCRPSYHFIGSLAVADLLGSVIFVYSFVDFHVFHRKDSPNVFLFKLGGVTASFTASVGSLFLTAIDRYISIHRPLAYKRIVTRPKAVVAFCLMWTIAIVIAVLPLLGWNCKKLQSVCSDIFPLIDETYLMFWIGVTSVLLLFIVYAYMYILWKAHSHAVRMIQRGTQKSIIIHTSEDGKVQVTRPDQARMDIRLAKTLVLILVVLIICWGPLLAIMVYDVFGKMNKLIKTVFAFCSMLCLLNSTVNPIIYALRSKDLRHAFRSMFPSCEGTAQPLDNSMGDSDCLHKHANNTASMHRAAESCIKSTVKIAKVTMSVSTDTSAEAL

One may read the Ki as a dissociation constant, usually derived from enzyme kinetics or from competition with a known ligand. Read a low Ki as higher affinity. The compound `CCCCC[C@@H](C)[C@H](C)c1cc(O)c2c(c1)OC(C)(C)[C@@H]1CC=C(C)C[C@@H]21` showed a Ki of 0.00159 µM.

`CCCCCCC(C)(C)c1cc(O)c2c(c1)OC(C)(C)[C@@H]1CCC(CO)=CC21` (stereo partly specified) [(3-(1,1-Dimethyl-heptyl)-9-hydroxymethyl-6,6-dimethyl-6a,7,8,10a-tetrahydro-6H-benzo[c]chromen-1-ol (HU210)] came in with a Ki of 0.126 µM.

In turn, `CCCCCCC(C)(C)c1cc(O)c2c(c1)OC(C)(C)[C@@H]1CCC(=O)C[C@@H]21` [(6aR,10aR)-3-(1,1-Dimethyl-heptyl)-1-hydroxy-6,6-dimethyl-6,6a,7,8,10,10a-hexahydro-benzo[c]chromen-9-one] had an inhibitory constant (Ki) of 0.0223 µM. Against the preceding compound, the Ki is about 5.7-fold lower.

`CCCC(C)(C)c1ccc([C@H]2CCC[C@@H](O)C2)c(O)c1` [Bicyclic analogs III] returned a Ki of 3.76 µM. Against the preceding compound, the Ki is about 170-fold higher.

Compound `CCC(C)(C)c1ccc([C@H]2CCC[C@@H](O)C2)c(O)c1` [Bicyclic analogs II] had a Ki greater than 10 µM.

Compound `CCCCC(C)(C)c1ccc([C@H]2CCC[C@@H](O)C2)c(O)c1` [Bicyclic analogs IV] registered a Ki of 0.00954 µM.

In turn, `CCCCCCCCCC(C)(C)c1ccc([C@H]2CCC[C@@H](O)C2)c(O)c1` [Bicyclic analogs IX] gave a Ki of 0.163 µM.

As to `CC(C)(C)c1ccc([C@H]2CCC[C@@H](O)C2)c(O)c1` [Bicyclic analogs I], the Ki is greater than 10 µM.

For the compound `CCCCCCCCC(C)(C)c1ccc([C@H]2CCC[C@@H](O)C2)c(O)c1` [Bicyclic analogs VIII], the Ki was 0.0285 µM.

Regarding `CCCCCCCC(C)(C)c1ccc([C@H]2CCC[C@@H](O)C2)c(O)c1` [Bicyclic analogs VII], the affinity corresponds to a Ki of 0.00473 µM.

The compound `CCCCCC(C)(C)c1ccc([C@H]2CCC[C@@H](O)C2)c(O)c1` [Bicyclic analogs V] came in with a Ki of 0.126 µM.

Consider `OCCC[C@@H]1CC[C@@H](O)C[C@H]1c1ccccc1O` [Bicyclic analogs XIII], for which the Ki is greater than 10 µM.

`CCCCCCC(C)(C)c1ccc([C@@H]2C[C@H](O)CC[C@H]2C)c(O)c1` [Bicyclic analogs XI]: the Ki is 0.00615 µM and 0.0077 µM.

Turning to `CCCCCCC(C)(C)c1ccc([C@@H]2C[C@H](O)CC[C@H]2CCCCO)c(O)c1` [Bicyclic analogs XVI], the affinity, expressed as Ki, was 0.00155 µM.

In turn, `CCCCCCCCCCC(C)(C)c1ccc([C@H]2CCC[C@@H](O)C2)c(O)c1` [Bicyclic analogs X] registered a Ki of 0.381 µM.

As for `CCCCCCC(C)(C)c1ccc([C@H]2CCC[C@@H](O)C2)c(O)c1` [CP-47,497], the affinity, expressed as Ki, was 0.735 µM.

Compound `CCCCCC(C)C(C)c1cc(O)c2c(c1)OC(C)(C)C1=C2CC(C)CC1` (stereo unspecified) [DMHP, 1', 2'] gave a Ki of 0.00156 µM. This Ki lies about 470-fold lower than the previous one.

In the case of `CCCCCc1cc(O)c2c(c1)OC(C)(C)C1CCC(C)(O)CC21` (stereo unspecified) [NSC_169742], the Ki was 0.124 µM and 0.171 µM.

Turning to `C=C(C)C1CCC(C)=CC1c1c(O)cc(O)cc1CCCCC` (stereo unspecified) [NSC_3060519], the Ki is greater than 10 µM.

`CCCCCc1cc(OCCCN)c2c(c1)OC(C)(C)[C@@H]1CCC(C)=C[C@@H]21` [THC, 1-O-(3-Aminopropyl)] displayed a Ki greater than 10 µM.

As for `CCCCCc1cc(OCCCCN)c2c(c1)OC(C)(C)[C@@H]1CCC(C)=C[C@@H]21` [THC, 1-O-(4-Aminobutyl)], the Ki is greater than 10 µM.

On to `CCCCCc1cc(OCCCCCCN)c2c(c1)OC(C)(C)[C@@H]1CCC(C)=C[C@@H]21` [THC, 1-O-(6-Aminohexyl)], for which the inhibition constant (Ki) was 1.73 µM. This counts as single-digit micromolar.

`CCCCCc1cc(OC(N)=O)c2c(c1)OC(C)(C)[C@@H]1CCC(C)=C[C@@H]21` [THC, 1-O-Carbamoyl] yielded a Ki greater than 10 µM.

With `C=C1CC[C@@H]2[C@@H](C1)c1c(OC)cc(CCC(CC)CCC)cc1OC2(C)C` (stereo partly specified) [THC, 1-O-Methyl-3-(norpentyl)-3-propyl], the Ki is greater than 10 µM.

Compound `CCCCCCC(C)(C)c1cc(OCc2ccc(-c3ccccc3)cc2)c2c(c1)OC(C)(C)[C@@H]1CCC(CO)=C[C@@H]21` [THC, 1-O-biphenylmethyl-delta 8] showed a Ki greater than 10 µM.

As to `C=C1CC[C@@H]2[C@@H](C1)c1c(OC)cc(CCCCC)cc1OC2(C)C` [THC, 1-O-methyl-delta 9,11], the affinity, expressed as Ki, was 0.827 µM.

For the compound `CCCCCc1cc(OC)c2c(c1)OC(C)(C)[C@@H]1CCC(C)=C[C@@H]21` [THC, 1-O-methyl-delta 9], the Ki is greater than 10 µM.

As to `C=C1CC[C@@H]2[C@@H](C1)c1c(O)cc(CCC(CC)CCC)cc1OC2(C)C` (stereo partly specified) [THC, 3-(Norpentyl)-3-propyl], the affinity corresponds to a Ki of 0.968 µM.

In the case of `CC1=C[C@H]2c3c(O)cc(CCCCCBr)cc3OC(C)(C)[C@@H]2CC1` [THC, 5'-Br], the Ki came to 0.00763 µM. This Ki lies about 130-fold lower than the previous one.

Compound `CC1=C[C@H]2c3c(O)cc(CCCCC(F)(F)F)cc3OC(C)(C)[C@@H]2CC1` [THC, 5'-F3] had a Ki of 0.0199 µM.

The compound `CC1=C[C@H]2c3c(O)cc(CCCCCF)cc3OC(C)(C)[C@@H]2CC1` [THC, 5'-F] gave a Ki of 0.057 µM.

Turning to `CC1=C[C@H]2c3c(O)cc(CCCCCI)cc3OC(C)(C)[C@@H]2CC1` [THC, 5'-I], the affinity corresponds to a Ki of 0.00777 µM.

For the compound `CC1=C[C@H]2c3c(O)cc(CCCCCO)cc3OC(C)(C)[C@@H]2CC1` [THC, 5'-OH], affinity was put at a Ki of 0.0876 µM.

Compound `CCCCCc1cc(O)c2c(c1)OC(C)(C)[C@@H]1C[C@@H](O)C(C)=C[C@@H]21` [THC, 8 beta-OH] showed a Ki of 0.82 µM.

As to `CCCCCc1cc(O)c2c(c1)OC(C)(C)[C@@H]1CCC(C(=O)O)=C[C@@H]21` [THC, 9-Nor-9-carboxy-delta 9], the Ki is greater than 10 µM.

Compound `CCCCCc1cc(OC)c2c(c1)OC(C)(C)[C@@H]1CCC(CF)=C[C@@H]21` [THC, 11-F] yielded a Ki of 0.107 µM.

Consider `CC1(C)Oc2cc(CCCCC[N+](C)(C)C)cc(O)c2[C@@H]2C=C(CO)CC[C@H]21` [THC, 11-OH-5'-TMA], for which the inhibition constant Ki turned out to be 2.11 µM.

Compound `CCCCCc1cc(O)c2c(c1)OC(C)(C)[C@@H]1CCC(CO)=C[C@@H]21` [THC, 11-OH-delta 9] returned a Ki of 0.0384 µM.

`CCCCCc1cc(OC(C)C)c2c(c1)OC(C)(C)[C@@H]1CCC(C)=C[C@@H]21` [THC, O, 2-propano] displayed a Ki greater than 10 µM.

In turn, `CCCCCc1cc(O)c2c(c1)OC(C)(C)[C@@H]1CCC(C)=C(CO)[C@@H]21` [THC, O, 10-Methano] came in with a Ki greater than 10 µM.

`CCCCCCC(C)(C)c1cc(O)c2c(c1)OC(C)(C)[C@H]1CCC(CO)=C[C@H]21` [THC-DMH, (-)-11-OH] had an inhibition constant Ki of 0.00072 µM. That is a sub-nanomolar value.

For the origin of these results see BindingDB's records for PubMed 8474008 (Virginia Commonwealth University, 1993).
